Earlier results as cited in patent US7012060B1, “TNF receptor and steroid hormone in a combined therapy” (priority 1995, dated 2006).

What was measured:
[1] = test system: systemic lupus erythematosus; settings: mouse model; cited from earlier work
TNF-α = settings: both in vivo and in vitro; cited from earlier work
Semliki Forest virus = settings: cited from earlier work
herpes virus type 2 = settings: cited from earlier work
coxsackievirus B4 = settings: cited from earlier work
West Nile virus = settings: cited from earlier work
[2] = test system: septic shock induced by lipopolysaccharides (LPS) alone; settings: mice; cited from earlier work
[3] = test system: septic shock induced by Tumor Necrosis Factor alpha (TNF-α) in combination with D-Galactosamine; settings: mice; cited from earlier work

C[C@]12CC[C@H](O)CC1=CC[C@@H]1[C@@H]2CC[C@]2(C)C(=O)CC[C@@H]12 [DHEA, Dehydroepiandrosterone]
development of systemic lupus erythematosus [1]: prevent the development
TNF-α levels after LPS administration (TNF-α): significantly blocked
systemic resistance against lethal viral infections (Semliki Forest virus): regulates the systemic resistance
systemic resistance against lethal viral infections (herpes virus type 2): regulates the systemic resistance
systemic resistance against lethal viral infections (coxsackievirus B4): regulates the systemic resistance
systemic resistance against lethal viral infections (West Nile virus): regulates the systemic resistance
protection from septic shock [2]: protecting mice from septic shock
protection from septic shock [3]: protecting mice from septic shock
